Test [1] addresses T1, phosphotriesterase (Brevundimonas diminuta, UniProt P0A434). Nature of the test: Enzyme activity for paraoxon degradation and enzyme partitioning in the two-phase organic/reverse micelle system (Tween rich heavy phase, excess hexane phase). It counts as biochemical. Details: made in house. The settings on record: Tween rich heavy phase of the organic/reverse micelle two-phase system. An excerpt: As set forth above, if the products of the reaction are more soluble in the organic phase than in an aqueous phase, it is preferable to choose a system with an excess of organic phase to facilitate product removal. Such a region can be found, for example, in FIG. 2C in the lower left hand corner of the phase diagram. This region is illustrated in FIG. 12 as the shaded area.
In this region, close to the single phase region, reverse micelles form with an excess hexane phase which has a low concentration (<15 mM) of Tween with adsorbed water.

The target in test [2] is T1, phosphotriesterase. As to the kind of experiment: Batch Michaelis-Menten kinetics of phosphotriesterase with pesticide substrates in Tween 85 reversed micelles and in Tris-HCl buffer. Format: biochemical. Details: made in house. The protocol:
Solutions of micelles were prepared in the following manner: 8 ml isopropanol was added to 13 g Tween 85 and Hexane was added to achieve a mixture of 50 ml. Water or Tris-HCl buffer (0.05M, pH 7.0) and hexane were added to this mixture to yield the desired system. […] Appropriate volumes were mixed to fill 1 ml quartz cuvettes, and the reaction was followed in a spectrophotometer. (Perkin Elmer Lambda 3). Michaelis-Menten kinetic constants (discussed below) were found by non-linear regression analysis of the initial rate data.
Enzymes function as catalysts in solution by lowering the free energy of the transition state in a reaction. Like conventional catalysts, the enzyme facilitates the reaction, but is in no way altered, so that when the reaction is completed, it is available to catalyze the conversion of more substrate molecules. When a single substrate is converted to product, the schematic of the reaction can be written [drawing 2] where S and P are substrate and product, respectively, and ES is an enzyme substrate complex. When the substrate concentration is much higher than the enzyme concentration, the enzyme is said to obey the Michaelis-Menten relationship describing the reaction rate, [formula] where (E) is the total enzyme concentration and (S) is the initial substrate concentration. KM is the saturation constant, and is a function of the individual rate constants, [formula] KM has the physical meaning as the substrate concentration which yields half the maximal reaction rate (Vmax), which is dependent on the catalytic rate constant of the chemcial step, k2, as well as the enzyme concentration,
Initial experiments were performed using paraoxon, parathion and methyl paraoxon. The effect of micelle size, pH, ionic strength and temperature have been investigated.

For test [3], the target named is T1, phosphotriesterase.
The mark [4] stands for this setting: Tris-HCl buffer, 10% Methanol added to enhance solubility.

Molecules are shown by their SMILES.

This is an account of results in US5510247A, “Centrifugal multiphase systems and method for using the same” (University of Pittsburgh, priority 1993, dated 1996).

Turning to `CCOP(=O)(OCC)Oc1ccc([N+](=O)[O-])cc1` [PARAOXON, Paraoxon], the Km (usually the concentration of substrate that gives half-maximal velocity) stood at 32 mM in test [1]; 14.3 ± 3.4 mM in test [2] (micelles, Wo 6.9); 28.9 ± 3.8 mM in test [2] (micelles, Wo 30); 31.2 ± 8.2 mM in test [2] (micelles, Wo 45); 34.8 ± 9 mM in test [2] (micelles, Wo 69); 33.3 ± 6.7 mM in test [2] (micelles, Wo 86). In addition, in test [2] (micelles, Wo 125), the Km stood at 29.5 ± 8.3 mM. Further, the kcat (commonly the maximal rate divided by the concentration of active sites) in test [1] is 975 s⁻¹; in test [2] (Tris-HCl buffer), 1,110 ± 28 s^-1; in test [2] (micelles, Wo 6.9), 70.3 ± 7.9 s⁻¹; in test [2] (micelles, Wo 30), 283 ± 18.4 s⁻¹; in test [2] (micelles, Wo 45) it was 366 ± 53 s⁻¹; in test [2] (micelles, Wo 69) it was 653 ± 98 s⁻¹. Also, the kcat in test [2] (micelles, Wo 86) came to 789 ± 86 s⁻¹; in test [2] (micelles, Wo 125), 1150 ± 170 s⁻¹. Moreover, the Vmax (as a rule, the rate approached at saturating substrate) in test [2] (Tris-HCl buffer) stood at 1.686 ± 42 µmol/mg/min; in test [2] (micelles, Wo 6.9) it was 107 ± 12 µmol/mg/min; in test [2] (micelles, Wo 30), 430 ± 28 µmol/mg/min; in test [2] (micelles, Wo 45), 556 ± 80 µmol/mg/min; in test [2] (micelles, Wo 69), 992 ± 149 µmol/mg/min; in test [2] (micelles, Wo 125) it was 1.753 ± 259 µmol/mg/min. In addition, the “kcat /KM” value in test [2] (Tris-HCl buffer) is 58,421 mM^-1 s^-1; in test [2] (micelles, Wo 6.9), 4.9 mM⁻¹ s⁻¹; in test [2] (micelles, Wo 30) it was 9.8 mM⁻¹ s⁻¹; in test [2] (micelles, Wo 45), 11.8 mM⁻¹ s⁻¹; in test [2] (micelles, Wo 69) it was 18.8 mM⁻¹ s⁻¹; in test [2] (micelles, Wo 86), 23.7 mM⁻¹ s⁻¹. Moreover, the “kcat /KM” value in test [2] (micelles, Wo 125) came to 39.1 mM⁻¹ s⁻¹.
In the case of `CCOP(=S)(OCC)Oc1ccc([N+](=O)[O-])cc1` [PARATHION, Parathion], the Km in test [2] (setting [4]) is 0.35 ± 0.08 mM; in test [2] (micelles, Wo 6), 81 ± 16 mM. Also, the Vmax in test [2] (setting [4]) was 2850 ± 540 µmol/mg/min; in test [2] (micelles, Wo 6), 1.37 ± 0.15 µmol/mg/min; in test [2] (micelles, Wo 29), 9.7 ± 1.4 µmol/mg/min; in test [2] (micelles, Wo 45), 14.7 ± 2.4 µmol/mg/min; in test [2] (micelles, Wo 70), 28 ± 17 µmol/mg/min; in test [2] (micelles, Wo 85), 52 ± 28 µmol/mg/min. The catalytic constant (kcat) in test [2] (setting [4]) came to 1870 ± 360 s⁻¹; in test [2] (micelles, Wo 6), 0.90 ± 0.10 s⁻¹; in test [2] (micelles, Wo 29) it was 6.4 ± 0.9 s⁻¹; in test [2] (micelles, Wo 45), 9.7 ± 1.6 s⁻¹; in test [2] (micelles, Wo 70) it was 18 ± 11 s⁻¹; in test [2] (micelles, Wo 85) it was 34 ± 18 s⁻¹. Also, the “kcat /KM” value in test [2] (setting [4]) was 5,340 mM^-1 s^-1; in test [2] (micelles, Wo 6), 0.011 mM⁻¹ s⁻¹; in test [2] (micelles, Wo 29), 0.054 mM⁻¹ s⁻¹; in test [2] (micelles, Wo 45) it was 0.074 mM⁻¹ s⁻¹; in test [2] (micelles, Wo 70), 0.082 mM⁻¹ s⁻¹; in test [2] (micelles, Wo 85) it was 0.082 mM⁻¹ s⁻¹.
Consider `COP(=O)(OC)Oc1ccc([N+](=O)[O-])cc1` [METHYL PARAOXON, methyl paraoxon], for which the Km amounted to 0.146 mM in test [2] (Tris-HCl buffer); 17.2 ± 3.2 mM in test [2] (micelles, Wo 5.5); 15.6 ± 2 mM in test [2] (micelles, Wo 28); 15.3 ± 1.9 mM in test [2] (micelles, Wo 46); 37.2 ± 11 mM in test [2] (micelles, Wo 66); 32.9 ± 8.9 mM in test [2] (micelles, Wo 82). Moreover, the Km in test [2] (micelles, Wo 122) was 50 ± 19 mM. For the same compound, the Vmax was 2293 µmol/mg/min in test [2] (Tris-HCl buffer); 26.5 ± 2.8 µmol/mg/min in test [2] (micelles, Wo 5.5); 43.2 ± 2.4 µmol/mg/min in test [2] (micelles, Wo 28); 53.1 ± 3.0 µmol/mg/min in test [2] (micelles, Wo 46); 192 ± 37 µmol/mg/min in test [2] (micelles, Wo 66); 225 ± 38 µmol/mg/min in test [2] (micelles, Wo 82). Also, the Vmax in test [2] (micelles, Wo 122) worked out at 397 ± 111 µmol/mg/min. The kcat in test [2] (Tris-HCl buffer) stood at 1509 s⁻¹; in test [2] (micelles, Wo 5.5), 17 s⁻¹; in test [2] (micelles, Wo 28), 28 s⁻¹; in test [2] (micelles, Wo 46) it was 35 s⁻¹; in test [2] (micelles, Wo 66) it was 126 s⁻¹; in test [2] (micelles, Wo 82), 148 s⁻¹. Besides, the kcat in test [2] (micelles, Wo 122) was determined as 261 s⁻¹. The “kcat /KM” value is 10,340 mM^-1 s^-1 in test [2] (Tris-HCl buffer); 1.0 mM⁻¹ s⁻¹ in test [2] (micelles, Wo 5.5); 1.182 mM⁻¹ s⁻¹ in test [2] (micelles, Wo 28); 2.28 mM⁻¹ s⁻¹ in test [2] (micelles, Wo 46); 3.35 mM⁻¹ s⁻¹ in test [2] (micelles, Wo 66); 4.5 mM⁻¹ s⁻¹ in test [2] (micelles, Wo 82). Moreover, the “kcat /KM” value in test [2] (micelles, Wo 122) was determined as 5.2 mM⁻¹ s⁻¹.
Turning to `OCCO` [ethylene glycol], in test [3] (micelles prepared with it as a cosurfactant), the “effect on enzyme activity” value is recorded as “enhanced enzyme activity”.
On to `CC(C)O` [isopropanol], for which the “effect on activity of phosphotriesterase” value in test [3] (in buffer) was “reduce the activity”.
